Where “and” joins values, the source holds several entries; their conditions need not be identical. Equal entries are not always repeated. Toxic doses and inconclusive results are not listed. How the source made its calls: active means survival T/C of 150% or more; inactive means T/C below 125% in these data.
Test system: BDF1 mice, P388 leukemia ip, median survival T/C
Experiment: NCI In Vivo Anticancer Drug Screen. Data for tumor model P388 Leukemia (intraperitoneal) in B6D2F1 (BDF1) mice
Conditions: endpoint: median survival time, higher = longer survival
Procedure, shortened: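 Transplantable tumour in mice; compound vs vehicle dosing; survival scored; ratio of treated to control reported.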

[1] = dose: 12.5 mg/kg/injection, schedule: Q01DX009 (ip), vehicle: saline with Tween-80
[2] = dose: 25.0 mg/kg/injection, schedule: Q01DX009 (ip), vehicle: saline with Tween-80
[3] = dose: 50.0 mg/kg/injection, schedule: Q01DX009 (ip), vehicle: saline with Tween-80
[4] = dose: 100.0 mg/kg/injection, schedule: Q04DX003 (ip), vehicle: saline with Tween-80
[5] = dose: 200.0 mg/kg/injection, schedule: Q04DX003 (ip), vehicle: saline with Tween-80
[6] = dose: 400.0 mg/kg/injection, schedule: Q04DX003 (ip), vehicle: saline with Tween-80
[7] = dose: 100.0 mg/kg/injection, schedule: Q01DX009 (ip), vehicle: saline with Tween-80
[8] = dose: 200.0 mg/kg/injection, schedule: Q01DX009 (ip), vehicle: saline with Tween-80
[9] = dose: 6.25 mg/kg/injection, schedule: Q01DX009 (ip), vehicle: saline with Tween-80
[10] = dose: 6.25 mg/kg/injection, schedule: Q01DX009 (ip), vehicle: saline
[11] = dose: 12.5 mg/kg/injection, schedule: Q01DX009 (ip), vehicle: saline
[12] = dose: 100.0 mg/kg/injection, schedule: Q04DX003 (ip), vehicle: Klucel (hydroxypropylcellulose) (HPC)
[13] = dose: 200.0 mg/kg/injection, schedule: Q04DX003 (ip), vehicle: Klucel (hydroxypropylcellulose) (HPC)

Measured: T/C

c1ccc(OCCC[P+](c2ccccc2)(c2ccccc2)c2ccccc2)cc1
inactive: dose: 0.78 mg/kg/injection, schedule: Q01DX010 (ip), vehicle: saline 90 % of control | dose: 1.56 mg/kg/injection, schedule: Q01DX010 (ip), vehicle: saline 100 % of control | dose: 3.13 mg/kg/injection, schedule: Q01DX010 (ip), vehicle: saline 109 % of control | dose: 6.25 mg/kg/injection, schedule: Q01DX010 (ip), vehicle: saline 118 % of control | dose: 12.5 mg/kg/injection, schedule: Q01DX010 (ip), vehicle: carboxymethylcellulose (CMC) 100 % of control

NCCSC(c1ccccc1)c1ccccc1
inactive: dose: 50.0 mg/kg/injection, schedule: Q01DX009 (ip), vehicle: Klucel (hydroxypropylcellulose) (HPC) 100 % of control | dose: 100.0 mg/kg/injection, schedule: Q01DX009 (ip), vehicle: Klucel (hydroxypropylcellulose) (HPC) 105 % of control

O=C1c2c(Cl)c(Cl)c(Cl)c(Cl)c2C(=O)N1c1ccc(-c2ccccc2)cc1
inactive: dose: 43.7 mg/kg/injection, schedule: Q01DX009 (ip), vehicle: saline with Tween-80 101 % of control | dose: 87.5 mg/kg/injection, schedule: Q01DX009 (ip), vehicle: saline with Tween-80 101 % of control | dose: 175.0 mg/kg/injection, schedule: Q01DX009 (ip), vehicle: saline with Tween-80 99 % of control

CC(C)=CCCC(C)C/C=N\O (stereo not drawn)
inactive: [1] 107 % of control | [2] 107 % of control | [3] 96 % of control | [4] 109 % of control | [5] 113 % of control | [6] 109 % of control

CCN(CC)CCOC(=O)c1ccc(OCCOc2ccc(C(C)(C)CC(C)(C)C)cc2)c([N+](=O)[O-])c1
inactive: dose: 75.0 mg/kg/injection, schedule: Q04DX003 (ip), vehicle: saline sonified 110 % of control | dose: 150.0 mg/kg/injection, schedule: Q04DX003 (ip), vehicle: saline sonified 110 % of control | dose: 300.0 mg/kg/injection, schedule: Q04DX003 (ip), vehicle: saline sonified 105 % of control

O=[N+]([O-])c1ccc(N2CCN(c3cccc(C(F)(F)F)c3)CC2)c([N+](=O)[O-])c1
inactive: [4] 113 % of control | [5] 100 % of control | [6] 100 % of control

Cc1cc(C)c(NC(=O)c2ccccc2Cl)c(C)c1
inactive: [4] 100 % of control | [5] 109 % of control | [6] 95 % of control

CCCCCCCCCCC(=O)CCCCCC
inactive: dose: 100.0 mg/kg/injection, schedule: Q04DX003 (ip), vehicle: other 104 % of control | dose: 200.0 mg/kg/injection, schedule: Q04DX003 (ip), vehicle: other 122 % of control | dose: 400.0 mg/kg/injection, schedule: Q04DX003 (ip), vehicle: other 109 % of control

Cc1ccc(C(=O)N(O)c2ccccc2)cc1
inactive: [3] 98 % of control | [7] 95 % of control | [8] 104 % of control

O=C(/C=C/c1ccccc1)NC(CO)Cc1ccccc1 (stereo not drawn)
inactive: [9] 90 % of control | [1] 92 % of control | [2] 101 % of control | [7] 100 % of control | [8] 100 % of control

O=[N+]([O-])c1ccc(Oc2ccc(-c3ccccc3)cc2)c(Cl)c1
inactive: dose: 18.75 mg/kg/injection, schedule: Q01DX009 (ip), vehicle: saline with Tween-80 92 % of control | dose: 75.0 mg/kg/injection, schedule: Q01DX009 (ip), vehicle: saline with Tween-80 93 % of control

NNC(=O)C1CC1
inactive: [10] 96 % of control | [11] 107 % of control | dose: 25.0 mg/kg/injection, schedule: Q01DX009 (ip), vehicle: saline 100 % of control | dose: 25.0 mg/kg/injection, schedule: Q04DX003 (ip), vehicle: saline 100 % of control | dose: 50.0 mg/kg/injection, schedule: Q01DX009 (ip), vehicle: saline 100 % of control | dose: 50.0 mg/kg/injection, schedule: Q04DX003 (ip), vehicle: saline 100 % of control | dose: 100.0 mg/kg/injection, schedule: Q04DX003 (ip), vehicle: saline 104 % of control

CS(C)=O.CS(C)=O.[Cl][Sn]([Cl])([Cl])[Cl]
inactive: dose: 37.5 mg/kg/injection, schedule: Q01DX009 (ip), vehicle: Klucel (hydroxypropylcellulose) (HPC) 105 % of control | dose: 75.0 mg/kg/injection, schedule: Q01DX009 (ip), vehicle: Klucel (hydroxypropylcellulose) (HPC) 100 % of control | [12] 104 % of control | dose: 150.0 mg/kg/injection, schedule: Q01DX009 (ip), vehicle: Klucel (hydroxypropylcellulose) (HPC) 100 % of control | [13] 90 % of control

Cn1nnc(N/N=C/c2ccccc2)n1
inactive: dose: 3.12 mg/kg/injection, schedule: Q01DX009 (ip), vehicle: saline with Tween-80 102 % of control | dose: 4.0 mg/kg/injection, schedule: Q01DX009 (ip), vehicle: saline with Tween-80 121 % of control | [9] 93 % of control | dose: 6.25 mg/kg/injection, schedule: Q04DX003 (ip), vehicle: saline with Tween-80 112 % of control | dose: 8.0 mg/kg/injection, schedule: Q01DX009 (ip), vehicle: saline with Tween-80 123 % of control | dose: 12.0 mg/kg/injection, schedule: Q01DX009 (ip), vehicle: saline with Tween-80 120 % of control | [1] 97 % of control and 107 % of control | dose: 12.5 mg/kg/injection, schedule: Q04DX003 (ip), vehicle: saline with Tween-80 105 % of control | dose: 16.0 mg/kg/injection, schedule: Q01DX009 (ip), vehicle: saline with Tween-80 98 % of control | dose: 20.0 mg/kg/injection, schedule: Q01DX009 (ip), vehicle: saline with Tween-80 114 % of control | [2] 100 % of control and 107 % of control | dose: 25.0 mg/kg/injection, schedule: Q04DX003 (ip), vehicle: saline with Tween-80 99 % of control and 100 % of control

N=N/C(=C\c1c(O)[nH]c2ccccc12)c1ccccc1
inactive: dose: 50.0 mg/kg/injection, schedule: Q04DX003 (ip), vehicle: Klucel (hydroxypropylcellulose) (HPC) 100 % of control | [12] 108 % of control | [13] 108 % of control | dose: 400.0 mg/kg/injection, schedule: Q04DX003 (ip), vehicle: Klucel (hydroxypropylcellulose) (HPC) 90 % of control

Cc1ccc(-c2nc3ccccc3c(=O)n2/N=C/c2ccc(Cl)cc2Cl)cc1
inactive: [3] 100 % of control | [7] 89 % of control | [8] 90 % of control

CC(=N/NC(=S)NCCN1CCCCC1)/C(C)=N\NC(=S)NCCN1CCCCC1
inactive: dose: 0.78 mg/kg/injection, schedule: Q01DX009 (ip), vehicle: saline 90 % of control | dose: 1.56 mg/kg/injection, schedule: Q01DX009 (ip), vehicle: saline 98 % of control | dose: 3.13 mg/kg/injection, schedule: Q01DX009 (ip), vehicle: saline 98 % of control and 121 % of control | [10] 105 % of control and 109 % of control | [11] 103 % of control

CN(CCOc1ccccc1O)CCOc1ccccc1O
inactive: dose: 100.0 mg/kg/injection, schedule: Q01DX001 (ip), vehicle: Klucel (hydroxypropylcellulose) (HPC) 120 % of control | dose: 200.0 mg/kg/injection, schedule: Q01DX001 (ip), vehicle: Klucel (hydroxypropylcellulose) (HPC) 110 % of control | dose: 400.0 mg/kg/injection, schedule: Q01DX001 (ip), vehicle: Klucel (hydroxypropylcellulose) (HPC) 105 % of control

COC1/C=C\OC2(C)Oc3c(C)c(O)c4c(c3C2=O)C(=O)C=C(NC(=O)C(C)=C/C=C\C(C)C(O)C(C)C2OC(C)(C)OC(C1C)C2C)C4=O (stereo not drawn)
inactive: [3] 103 % of control | [7] 100 % of control | [8] 93 % of control

O=C(CNC(=O)Nc1n[nH]c(=S)s1)N/N=C/c1ccccc1O
inactive: [3] 100 % of control | [7] 91 % of control | [8] 98 % of control

— PubChem BioAssay AID328 (DTP/NCI, 2004)
